The results in this text go back to PubChem BioAssay (NCI).

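96-well plates; 48 h exposure; 5 concentrations. Endpoints by linear interpolation between flanking doses. Not reached: highest tested concentration assigned. TGI marks complete inhibition of growth.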 A value given as a limit tells only on which side of the number the result lay.

The first experiment deals with HOP-62 NSCLC. The experiment in a line: DTP human tumour cell line panel, 48 h.
What is called TGI is the concentration giving total growth inhibition. Read a high TGI as less potent growth arrest. As to `COc1ccc(/C(Cl)=C(\C=O)c2ccc(F)cc2)cc1OC`, the TGI is 52.6 µM.

`COC(=O)N/N=C(\C)C(CN1CCCCC1)C(C1=C(O)c2ccccc2OC1)c1ccccc1` (configuration not stated): the total growth inhibition concentration (TGI) is > 100 µM.

`COC(=O)/C(C#N)=C1\CCC(O)N1` (configuration not stated): the TGI was > 100 µM.

Another experiment concerns K-562 leukemia. The experiment in a line: DTP human tumour cell line panel, 48 h.
With `C[n+]1cc(C(O)c2ccc3c(c2)OCO3)c2ccccc2c1` (configuration not stated), the TGI is > 100 µM.

Compound `COc1ccc(/C(Cl)=C(\C=O)c2ccc(F)cc2)cc1OC` came in with a TGI of 73.5 µM.

As for `COC(=O)N/N=C(\C)C(CN1CCCCC1)C(C1=C(O)c2ccccc2OC1)c1ccccc1` (configuration not stated), the TGI was > 100 µM.

With `COC(=O)/C(C#N)=C1\CCC(O)N1` (configuration not stated), the total growth inhibition concentration (TGI) was > 100 µM.

In another experiment the test system is CCRF-CEM leukemia. As to the kind of experiment: DTP human tumour cell line panel, 48 h.
`C[n+]1cc(C(O)c2ccc3c(c2)OCO3)c2ccccc2c1` (configuration not stated): the TGI is > 100 µM.

Compound `COc1ccc(/C(Cl)=C(\C=O)c2ccc(F)cc2)cc1OC` had a TGI of 48.6 µM.

Take `COC(=O)N/N=C(\C)C(CN1CCCCC1)C(C1=C(O)c2ccccc2OC1)c1ccccc1` (configuration not stated): the TGI is > 100 µM.

On to `COC(=O)/C(C#N)=C1\CCC(O)N1` (configuration not stated), for which the TGI is > 100 µM.

Another experiment relates to SW-620 colon. The experiment in a line: DTP human tumour cell line panel, 48 h.
Consider `C[n+]1cc(C(O)c2ccc3c(c2)OCO3)c2ccccc2c1` (configuration not stated), for which the TGI was > 100 µM.

For `COc1ccc(/C(Cl)=C(\C=O)c2ccc(F)cc2)cc1OC`, the TGI was > 100 µM.

Consider `COC(=O)N/N=C(\C)C(CN1CCCCC1)C(C1=C(O)c2ccccc2OC1)c1ccccc1` (configuration not stated), for which the concentration for total growth inhibition (TGI) was > 100 µM.

For the compound `COC(=O)/C(C#N)=C1\CCC(O)N1` (configuration not stated), the concentration for total growth inhibition (TGI) is > 100 µM.

In a further experiment the test system is HCT-116 colon. The experiment in a line: DTP human tumour cell line panel, 48 h.
For the compound `C[n+]1cc(C(O)c2ccc3c(c2)OCO3)c2ccccc2c1` (configuration not stated), the TGI was > 100 µM.

As to `COc1ccc(/C(Cl)=C(\C=O)c2ccc(F)cc2)cc1OC`, the TGI stood at 31 µM.

On to `COC(=O)N/N=C(\C)C(CN1CCCCC1)C(C1=C(O)c2ccccc2OC1)c1ccccc1` (configuration not stated), for which the TGI was > 100 µM.

Turning to `COC(=O)/C(C#N)=C1\CCC(O)N1` (configuration not stated), the TGI is > 100 µM.

Another experiment has as its system DLD-1 colon. As to the kind of experiment: DTP human tumour cell line panel, 48 h.
In the case of `C[n+]1cc(C(O)c2ccc3c(c2)OCO3)c2ccccc2c1` (configuration not stated), the TGI was > 100 µM.

Turning to `COc1ccc(/C(Cl)=C(\C=O)c2ccc(F)cc2)cc1OC`, the TGI was 78.4 µM.

Take `COC(=O)N/N=C(\C)C(CN1CCCCC1)C(C1=C(O)c2ccccc2OC1)c1ccccc1` (configuration not stated): the TGI is > 100 µM.

For `COC(=O)/C(C#N)=C1\CCC(O)N1` (configuration not stated), the TGI was > 100 µM.

In the next experiment the test system is SF-268 CNS. As to the kind of experiment: DTP human tumour cell line panel, 48 h.
Consider `C[n+]1cc(C(O)c2ccc3c(c2)OCO3)c2ccccc2c1` (configuration not stated), for which the TGI was > 100 µM.

`COc1ccc(/C(Cl)=C(\C=O)c2ccc(F)cc2)cc1OC` had a TGI of 83.3 µM.

As for `COC(=O)N/N=C(\C)C(CN1CCCCC1)C(C1=C(O)c2ccccc2OC1)c1ccccc1` (configuration not stated), the TGI was > 100 µM.

As for `COC(=O)/C(C#N)=C1\CCC(O)N1` (configuration not stated), the total growth inhibition concentration (TGI) was > 100 µM.

For another experiment, the system named is SF-539 CNS. As to the kind of experiment: DTP human tumour cell line panel, 48 h.
Regarding `C[n+]1cc(C(O)c2ccc3c(c2)OCO3)c2ccccc2c1` (configuration not stated), the TGI was > 100 µM.

`COc1ccc(/C(Cl)=C(\C=O)c2ccc(F)cc2)cc1OC` registered a TGI of 59 µM.

Consider `COC(=O)N/N=C(\C)C(CN1CCCCC1)C(C1=C(O)c2ccccc2OC1)c1ccccc1` (configuration not stated), for which the TGI was > 100 µM.

With `COC(=O)/C(C#N)=C1\CCC(O)N1` (configuration not stated), the TGI was > 100 µM.

A further experiment relates to 786-0 renal. As to the kind of experiment: DTP human tumour cell line panel, 48 h.
`C[n+]1cc(C(O)c2ccc3c(c2)OCO3)c2ccccc2c1` (configuration not stated): the TGI is > 100 µM.

In the case of `COC(=O)N/N=C(\C)C(CN1CCCCC1)C(C1=C(O)c2ccccc2OC1)c1ccccc1` (configuration not stated), the TGI was > 100 µM.

For the compound `COC(=O)/C(C#N)=C1\CCC(O)N1` (configuration not stated), the TGI was > 100 µM.

Another experiment concerns A549 NSCLC. As to the kind of experiment: DTP human tumour cell line panel, 48 h.
In the case of `C[n+]1cc(C(O)c2ccc3c(c2)OCO3)c2ccccc2c1` (configuration not stated), the TGI is > 100 µM.

On to `COC(=O)N/N=C(\C)C(CN1CCCCC1)C(C1=C(O)c2ccccc2OC1)c1ccccc1` (configuration not stated), for which the TGI is > 100 µM.

Take `COC(=O)/C(C#N)=C1\CCC(O)N1` (configuration not stated): the TGI was > 100 µM.

Another experiment concerns LOX IMVI melanoma. As to the kind of experiment: DTP human tumour cell line panel, 48 h.
With `C[n+]1cc(C(O)c2ccc3c(c2)OCO3)c2ccccc2c1` (configuration not stated), the concentration for total growth inhibition (TGI) is > 100 µM.

The compound `COc1ccc(/C(Cl)=C(\C=O)c2ccc(F)cc2)cc1OC` had a TGI of 30.7 µM.

Consider `COC(=O)N/N=C(\C)C(CN1CCCCC1)C(C1=C(O)c2ccccc2OC1)c1ccccc1` (configuration not stated), for which the TGI was > 100 µM.

Turning to `COC(=O)/C(C#N)=C1\CCC(O)N1` (configuration not stated), the TGI is > 100 µM.

In the next experiment the test system is TK-10 renal. The experiment in a line: DTP human tumour cell line panel, 48 h.
For `C[n+]1cc(C(O)c2ccc3c(c2)OCO3)c2ccccc2c1` (configuration not stated), the TGI is > 100 µM.

`COc1ccc(/C(Cl)=C(\C=O)c2ccc(F)cc2)cc1OC`: the concentration for total growth inhibition (TGI) is > 100 µM.

For `COC(=O)N/N=C(\C)C(CN1CCCCC1)C(C1=C(O)c2ccccc2OC1)c1ccccc1` (configuration not stated), the TGI was > 100 µM.

Consider `COC(=O)/C(C#N)=C1\CCC(O)N1` (configuration not stated), for which the TGI is > 100 µM.

The test system of a further experiment is NCI-H23 lung. The experiment in a line: DTP human tumour cell line panel, 48 h.
`COc1ccc(/C(Cl)=C(\C=O)c2ccc(F)cc2)cc1OC` registered a concentration for total growth inhibition (TGI) of 66.6 µM.

`COC(=O)N/N=C(\C)C(CN1CCCCC1)C(C1=C(O)c2ccccc2OC1)c1ccccc1` (configuration not stated): the TGI is > 100 µM.

Consider `COC(=O)/C(C#N)=C1\CCC(O)N1` (configuration not stated), for which the TGI is > 100 µM.

The next experiment concerns SNB-75 CNS. As to the kind of experiment: DTP human tumour cell line panel, 48 h.
On to `C[n+]1cc(C(O)c2ccc3c(c2)OCO3)c2ccccc2c1` (configuration not stated), for which the TGI is > 100 µM.

The compound `COc1ccc(/C(Cl)=C(\C=O)c2ccc(F)cc2)cc1OC` gave a concentration for total growth inhibition (TGI) of 13.7 µM.

With `COC(=O)N/N=C(\C)C(CN1CCCCC1)C(C1=C(O)c2ccccc2OC1)c1ccccc1` (configuration not stated), the TGI is > 100 µM.

Take `COC(=O)/C(C#N)=C1\CCC(O)N1` (configuration not stated): the total growth inhibition concentration (TGI) was > 100 µM.
